Reference: paper PMC4159592 (Chembiochem, 2014)

Molecular target: CYP126 (Mycobacterium tuberculosis, UniProt P9WPN9)
Assay: biochemical
Format: binding

CYP126, sequence (P9WPN9 whole entry): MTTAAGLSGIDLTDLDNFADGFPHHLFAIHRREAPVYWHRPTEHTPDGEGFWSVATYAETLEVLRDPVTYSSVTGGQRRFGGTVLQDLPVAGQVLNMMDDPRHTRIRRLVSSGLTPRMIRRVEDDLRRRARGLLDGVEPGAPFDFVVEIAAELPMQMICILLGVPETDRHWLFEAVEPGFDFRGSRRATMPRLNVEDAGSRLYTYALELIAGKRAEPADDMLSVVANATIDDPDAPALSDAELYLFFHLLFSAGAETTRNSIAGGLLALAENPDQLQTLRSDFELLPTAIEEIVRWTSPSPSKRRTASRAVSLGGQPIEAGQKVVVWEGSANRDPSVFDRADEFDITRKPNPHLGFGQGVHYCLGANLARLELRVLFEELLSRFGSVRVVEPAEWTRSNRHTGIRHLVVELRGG

How did the Kd turn out when `Oc1c(Cl)c(Cl)c(Cl)c(Cl)c1Cl` [TB23, pentachlorophenol] was run?
The Kd was 150 µM.
